The values below come from patent US20260217735A1, “HETEROCYCLES AND USES THEREOF” (Kumquat Biosciences Inc., priority 2023, published 2026).

As usually defined, the IC50 is the concentration that gives 50% inhibition.

One assay has as its target T1, KRAS G12D (Homo sapiens, UniProt P01116, G12D).
T1 construct: made in house; host or cells: E. coli, e.g. BL21 (DE3)
In words: HTRF assay, KRAS G12D interaction with SOS1. In kind it is biochemical. Particulars: bins <500 nM / 500 nM to 1000 nM, read-out: Inhibition of KRAS G12D (IC50). (In TR-FRET formats the signal depends on donor and acceptor labels being close together.)

The target in another assay is T2, KRAS WT (Homo sapiens, UniProt P01116).
T2 construct: made in house; host or cells: E. coli, e.g. BL21 (DE3)
T2 sequence (P01116 1-188 isoform P01116-2): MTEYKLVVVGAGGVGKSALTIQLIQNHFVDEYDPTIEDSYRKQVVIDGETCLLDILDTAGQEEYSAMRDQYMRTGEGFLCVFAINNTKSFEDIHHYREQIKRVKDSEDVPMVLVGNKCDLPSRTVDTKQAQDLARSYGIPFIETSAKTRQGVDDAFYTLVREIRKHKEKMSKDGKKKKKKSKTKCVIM
Kind of assay: HTRF assay, wildtype KRAS interaction with SOS1. In kind it is biochemical. To be noted: bins <500 nM / 500 nM to 1000 nM, read-out: Inhibition of KRAS WT (IC50).

A further assay concerns the target T3, KRAS G12V (Homo sapiens, UniProt P01116, G12V).
T3 construct: made in house; host or cells: E. coli, e.g. BL21 (DE3)
In words: HTRF assay, KRAS G12V interaction with SOS1. Particulars: bins <500 nM / 500 nM to 1000 nM, read-out: Inhibition of KRAS G12V (IC50). In kind it is biochemical.

In another assay the target is T4, KRAS G12S (Homo sapiens, UniProt P01116, G12S).
T4 construct: made in house; host or cells: E. coli, e.g. BL21 (DE3)
T4 sequence (P01116 1-188 isoform P01116-2 G12S): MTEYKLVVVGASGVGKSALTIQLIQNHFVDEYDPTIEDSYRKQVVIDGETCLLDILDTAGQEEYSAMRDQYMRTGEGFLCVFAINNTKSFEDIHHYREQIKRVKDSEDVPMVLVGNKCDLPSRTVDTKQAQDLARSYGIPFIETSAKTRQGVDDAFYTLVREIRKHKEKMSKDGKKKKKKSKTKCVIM
Kind of assay: HTRF assay, KRAS G12S interaction with SOS1. In kind it is biochemical. Particulars: bins <500 nM / 500 nM to 1000 nM, read-out: Inhibition of KRAS G12S (IC50).

The subject of a further assay is MiaPaca2 cells. Kind of assay: Ras cellular assay, growth of cells with K-Ras G12C mutation. In kind it is cell-based. Particulars: Homo sapiens, MIA PaCa-2; cell proliferation assay; bins ≤500 nM / >500 nM; read-out: Inhibition of MiaPaca2 Cells (IC50). As to the method:
For example, this assay can be also used to assess selective growth inhibition of a mutant Ras protein relative to a wildtype or different mutant Ras protein.
MIA PaCa-2 (ATCC CRL-1420) and NCI-H1792 (ATCC CRL-5895) cell lines comprise a G12C mutation and can be used to assess Ras cellular signaling in vitro, e.g., in response to an inhibitor compound of the present disclosure. […] MIA PaCa-2 culture medium is prepared with DMEM/Ham's F12 (e.g., with stable glutamine, 10% FCS, and 2.5% horse serum. NCI-H1792 culture medium is prepared with RPMI 1640 (e.g., with stable glutamine) and 10% FCS.
On a first day (e.g., Day 1), Softagar (Select Agar, Invitrogen, 3% in ddH2O autoclaved) is boiled and tempered at 48° C. Appropriate culture medium (i.e., medium) is tempered to 37° C. Agar (3%) is diluted 1:5 in medium (=0.6%) and plated into 96 well plates (Corning, #3904), then incubated at room temperature for agar solidification. A 3% agar is diluted to 0.25% in medium (1:12 dilution) and tempered at 42° C. Cells are trypsinized, counted, and tempered at 37° C. The cells (e.g., MIA PaCa-2 at about 125-150 cells, NCI-H1792 at about 1000 cells) are resuspended in […] 0.25% Agar and plated, followed by incubation at room temperature for agar solidification. The wells are overlaid with […] of the medium. Sister wells in a separate plate are plated for time zero determination. All plates are incubated overnight at 37° C. and 5% CO2.
On a second day (e.g., Day 2), time zero values are measured. A […] volume of Cell Titer 96 Aqueous Solution (Promega) is added to each well and incubated in the dark at 37° C. and 5% CO2. Absorption can be measured at 490 nm and reference wavelength 660 nm. DMSO-prediluted test compounds are added to wells of interest, e.g., with HP Dispenser, to one or more desired concentrations (e.g., a final DMSO concentration of 0.3%).
On a tenth day (e.g., Day 10), absorption by wells treated with the test compounds and control wells are measured with, for example, Cell Titer 96 AQueous and analyzed in comparison to the time zero measurements. The IC50 values are determined using the four parameter fit. The resulting IC50 value is a measurement of the ability of the test compound to reduce cell growth of Ras-driven cells (e.g., tumor cell lines) in vitro and/or in vivo.

T1 sequence (P01116 1-188 isoform P01116-2 G12D): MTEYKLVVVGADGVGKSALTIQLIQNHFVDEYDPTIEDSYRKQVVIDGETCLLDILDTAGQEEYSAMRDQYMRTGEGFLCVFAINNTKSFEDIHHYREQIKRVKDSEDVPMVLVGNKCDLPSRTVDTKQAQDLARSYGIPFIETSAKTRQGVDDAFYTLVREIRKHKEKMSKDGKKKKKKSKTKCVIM
T3 sequence (P01116 1-188 isoform P01116-2 G12V): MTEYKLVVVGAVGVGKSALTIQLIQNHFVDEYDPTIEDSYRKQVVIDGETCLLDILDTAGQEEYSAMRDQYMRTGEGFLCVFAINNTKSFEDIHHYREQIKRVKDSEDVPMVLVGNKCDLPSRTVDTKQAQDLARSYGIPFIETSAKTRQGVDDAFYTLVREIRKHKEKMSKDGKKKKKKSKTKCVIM

On to `CCN(c1nc(OC[C@@]23CCCN2C[C@H](F)C3)nc2c(F)c(-c3ccc(F)c4sc(N)c(C#N)c34)c(Cl)cc12)[C@@H]1CCN(C(=O)n2cnc(C)c2)[C@@H]1C` [Compound 108, 2-amino-4-(6-chloro-4-(ethyl((2R,3R)-2-methyl-1-(4-methyl-1H-imidazole-1-carbonyl)pyrrolidin-3-yl)amino)-8-fluoro-2-(((2R,7aS)-2-fluorotetrahydro-1H-pyrrolizin-7a(5H)-yl)methoxy)quinazolin-7-yl)-7-fluorobenzo[b]thiophene-3-carbonitrile], for which the IC50 on KRAS G12D was less than 0.5 µM; at KRAS WT it was less than 0.5 µM; on KRAS G12V, less than 0.5 µM; at KRAS G12S, less than 0.5 µM; in the assay on MiaPaca2 cells it was no more than 0.5 µM.
Consider `Cc1cn(C(=O)N(C)CC2(F)CN(c3nc(OC[C@@]45CCCN4C[C@H](F)C5)nc4c(F)c(-c5ccc(F)c6sc(N)c(C#N)c56)c(Cl)cc34)C2)cn1` [Compound 109, N-((1-(7-(2-amino-3-cyano-7-fluorobenzo[b]thiophen-4-yl)-6-chloro-8-fluoro-2-(((2R,7aS)-2-fluorotetrahydro-1H-pyrrolizin-7a(5H)-yl)methoxy)quinazolin-4-yl)-3-fluoroazetidin-3-yl)methyl)-N,4-dimethyl-1H-imidazole-1-carboxamide], for which the IC50 at KRAS G12D is less than 0.5 µM; at KRAS WT, less than 0.5 µM; at KRAS G12V, less than 0.5 µM; at KRAS G12S, less than 0.5 µM; in the assay on MiaPaca2 cells it was no more than 0.5 µM.
With `CCN(c1nc(OC[C@@]23CCCN2C[C@H](F)C3)nc2c(F)c(-c3ccc(F)c4sc(N)c(C#N)c34)c(C(F)(F)F)cc12)[C@@H]1CCN(C(=O)n2cnc(C)c2C)[C@@H]1C` [Compound 110, 2-amino-4-(4-(((2R,3R)-1-(4,5-dimethyl-1H-imidazole-1-carbonyl)-2-methylpyrrolidin-3-yl)(ethyl)amino)-8-fluoro-2-(((2R,7aS)-2-fluorotetrahydro-1H-pyrrolizin-7a(5H)-yl)methoxy)-6-(trifluoromethyl)quinazolin-7-yl)-7-fluorobenzo[b]thiophene-3-carbonitrile], the IC50 on KRAS G12D was less than 0.5 µM; at KRAS WT, less than 0.5 µM; on KRAS G12V, less than 0.5 µM; at KRAS G12S, less than 0.5 µM; with MiaPaca2 cells, no more than 0.5 µM.
Turning to `Cc1c(C#N)ncn1C(=O)N1C[C@]2(CCCCN(c3nc(OC[C@@]45CCCN4C[C@H](F)C5)nc4c(F)c(-c5ccc(F)c6sc(N)c(C#N)c56)c(Cl)cc34)C2)[C@H]1C1(C)CC1` [Compound 111, 1-((1R,4R)-6-(7-(2-amino-3-cyano-7-fluorobenzo[b]thiophen-4-yl)-6-chloro-8-fluoro-2-(((2R,7aS)-2-fluorotetrahydro-1H-pyrrolizin-7a(5H)-yl)methoxy)quinazolin-4-yl)-1-(1-methylcyclopropyl)-2,6-diazaspiro[3.6]decane-2-carbonyl)-5-methyl-1H-imidazole-4-carbonitrile], the IC50 at KRAS G12D is less than 0.5 µM; on KRAS WT, less than 0.5 µM; on KRAS G12V it was less than 0.5 µM; at KRAS G12S it was less than 0.5 µM; in the assay on MiaPaca2 cells it was no more than 0.5 µM.
Consider `C[C@@H]1[C@H](N(C)c2nc(OC[C@@]34CCCN3C[C@H](F)C4)nc3c(F)c(-c4ccc(F)c5sc(N)c(C#N)c45)c(Cl)cc23)CCN1C(=O)n1cnc(F)n1` [Compound 112, 2-amino-4-(6-chloro-8-fluoro-4-(((2R,3R)-1-(3-fluoro-1H-1,2,4-triazole-1-carbonyl)-2-methylpyrrolidin-3-yl)(methyl)amino)-2-(((2R,7aS)-2-fluorotetrahydro-1H-pyrrolizin-7a(5H)-yl)methoxy)quinazolin-7-yl)-7-fluorobenzo[b]thiophene-3-carbonitrile], for which the IC50 at KRAS G12D is less than 0.5 µM; at KRAS WT, less than 0.5 µM; at KRAS G12V, less than 0.5 µM; at KRAS G12S, less than 0.5 µM; with MiaPaca2 cells, no more than 0.5 µM.
With `CCN(c1nc(OC[C@@]23CCCN2C[C@H](F)C3)nc2c(F)c(-c3ccc(F)c4sc(N)c(C#N)c34)c(Cl)cc12)[C@@H]1CCN(C(=O)n2cnc(F)n2)[C@@H]1C` [Compound 115, 2-amino-4-(6-chloro-4-(ethyl((2R,3R)-1-(3-fluoro-1H-1,2,4-triazole-1-carbonyl)-2-methylpyrrolidin-3-yl)amino)-8-fluoro-2-(((2R,7aS)-2-fluorotetrahydro-1H-pyrrolizin-7a(5H)-yl)methoxy)quinazolin-7-yl)-7-fluorobenzo[b]thiophene-3-carbonitrile], the IC50 at KRAS G12D is less than 0.5 µM; on KRAS WT, less than 0.5 µM; at KRAS G12V, less than 0.5 µM; on KRAS G12S it was less than 0.5 µM; in the assay on MiaPaca2 cells it was no more than 0.5 µM.
With `Cc1nccn1C(=O)N1CC[C@@]12CCN(c1nc(OC[C@@]34CCCN3C[C@H](F)C4)nc3c(F)c(-c4ccc(F)c5sc(N)c(C#N)c45)c(Cl)cc13)C2` [Compound 116, 2-amino-4-(6-chloro-8-fluoro-2-(((2R,7aS)-2-fluorotetrahydro-1H-pyrrolizin-7a(5H)-yl)methoxy)-4-((R)-1-(2-methyl-1H-imidazole-1-carbonyl)-1,6-diazaspiro[3.4]octan-6-yl)quinazolin-7-yl)-7-fluorobenzo[b]thiophene-3-carbonitrile], the IC50 at KRAS G12D was less than 0.5 µM; at KRAS WT, less than 0.5 µM; on KRAS G12V it was less than 0.5 µM; at KRAS G12S, less than 0.5 µM; in the assay with MiaPaca2 cells, no more than 0.5 µM.
With `CN(c1nc(OC[C@@]23CCCN2C[C@H](F)C3)nc2c(F)c(-c3ccc(F)c4sc(N)c(C#N)c34)c(Cl)cc12)[C@@H]1CCN(C(=O)n2ccnc2)C1` [Compound 118, 4-(4-(((R)-1-(1H-imidazole-1-carbonyl)pyrrolidin-3-yl)(methyl)amino)-6-chloro-8-fluoro-2-(((2R,7aS)-2-fluorotetrahydro-1H-pyrrolizin-7a(5H)-yl)methoxy)quinazolin-7-yl)-2-amino-7-fluorobenzo[b]thiophene-3-carbonitrile], the IC50 was less than 0.5 µM at KRAS G12D; less than 0.5 µM at KRAS WT; less than 0.5 µM at KRAS G12V; less than 0.5 µM on KRAS G12S; no more than 0.5 µM in the assay with MiaPaca2 cells.
Regarding `N#Cc1c(N)sc2c(F)ccc(-c3c(Cl)cc4c(N5CCCCC6(CN(C(=O)n7ccnc7Br)C6)C5)nc(OC[C@@]56CCCN5C[C@H](F)C6)nc4c3F)c12` [Compound 119, 2-amino-4-(4-(2-(2-bromo-1H-imidazole-1-carbonyl)-2,6-diazaspiro[3.6]decan-6-yl)-6-chloro-8-fluoro-2-(((2R,7aS)-2-fluorotetrahydro-1H-pyrrolizin-7a(5H)-yl)methoxy)quinazolin-7-yl)-7-fluorobenzo[b]thiophene-3-carbonitrile], the IC50 was less than 0.5 µM on KRAS G12D; less than 0.5 µM at KRAS WT; less than 0.5 µM at KRAS G12V; less than 0.5 µM on KRAS G12S; no more than 0.5 µM with MiaPaca2 cells.
`Cc1nccn1C(=O)N1CC[C@@H](N(C)c2nc(OC[C@@]34CCCN3C[C@H](F)C4)nc3c(F)c(-c4ccc(F)c5sc(N)c(C#N)c45)c(Cl)cc23)[C@H]1C` [Compound 120, 2-amino-4-(6-chloro-8-fluoro-2-(((2R,7aS)-2-fluorotetrahydro-1H-pyrrolizin-7a(5H)-yl)methoxy)-4-(methyl((2R,3R)-2-methyl-1-(2-methyl-1H-imidazole-1-carbonyl)pyrrolidin-3-yl)amino)quinazolin-7-yl)-7-fluorobenzo[b]thiophene-3-carbonitrile]: the IC50 was less than 0.5 µM at KRAS G12D; less than 0.5 µM on KRAS WT; less than 0.5 µM on KRAS G12V; less than 0.5 µM at KRAS G12S; no more than 0.5 µM in the assay on MiaPaca2 cells.
